The text below walks through data of US5610155A, “Condensed diazepinones, processes for preparing them and agents containing these compounds for treating diseases of the central nervous system and for promoting cerebral blood circulation” (Dr. Karl Thomae GmbH, priority 1995, dated 1997).

Broadly, the Ki is the dissociation constant of the complex between target and ligand, obtained from inhibition or displacement. Low values mean higher affinity, high ones lower affinity. The ED50 is the dose at which the effect has come halfway, by size or by number of responders.

The target of one assay is T1, M3 (Submandibular gland) (Rattus norvegicus, UniProt P08483).
T1 construct: The cerebral cortex, heart and salivary glands were removed, washed and homogenised; from tissue; host or cells: salivary (submandibular) glands of male Wistar rats (Chbb: THOM)
Briefly: Receptor binding test in vitro, M3 (submandibular/salivary gland), [3H]NMS. Details: species or system rat (male Wistar). The following applies: 0.3 nM [3H]NMS, 40 min, ambient temperature, pH 7.5.

In another assay the target is T2, M1 (Cortex) (Rattus norvegicus, UniProt P08482).
T2 construct: The cerebral cortex, heart and salivary glands were removed, washed and homogenised; from tissue; host or cells: cerebral cortex of male Wistar rats (Chbb: THOM)
T2 sequence (P08482 1-460): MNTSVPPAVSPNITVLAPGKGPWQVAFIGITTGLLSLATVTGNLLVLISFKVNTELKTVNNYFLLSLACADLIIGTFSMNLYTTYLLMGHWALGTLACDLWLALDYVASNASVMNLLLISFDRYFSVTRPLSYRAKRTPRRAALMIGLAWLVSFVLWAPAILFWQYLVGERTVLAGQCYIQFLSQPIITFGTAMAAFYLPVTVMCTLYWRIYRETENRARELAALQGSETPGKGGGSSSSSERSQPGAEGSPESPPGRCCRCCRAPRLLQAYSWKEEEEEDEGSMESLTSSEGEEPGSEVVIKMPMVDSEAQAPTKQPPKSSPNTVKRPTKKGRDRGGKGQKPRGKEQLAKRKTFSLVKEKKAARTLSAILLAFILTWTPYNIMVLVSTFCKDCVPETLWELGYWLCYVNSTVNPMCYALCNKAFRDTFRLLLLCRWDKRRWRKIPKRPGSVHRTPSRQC
Nature of the assay: Receptor binding test in vitro, M1 (cerebral cortex), [3H]pirenzepine. On the set-up: species or system rat (male Wistar). The following applies: 1 nM [3H]pirenzepine, 90 min, ambient temperature, pH 7.5.

Assay [1] deals with arecoline-induced increase in blood pressure. Briefly: Investigation for central activity: arecoline test, CNS-penetration in vivo. Details: species or system rat. The following applies: for ED50: Rattus norvegicus, iv, read-out: ED50, reduction in the arecoline-induced increase in blood pressure. On the procedure:
Principle: Arecoline has both a central and a peripherally active component. […] Cerebroavailable antimuscarinics block this central effect. Method: Male rats weighing 300 g are anaesthetised i.p. with urethane (1.2 g/kg). The trachea is […], the animals are respirated with an air/oxygen mixture (80 breaths per minute). The blood pressure is recorded after canulation of the carotid artery by means of a pressure recorder (Bell and Howell Type 4-327-I). The test substances are administered through the jugular vein ([…]). […] The arecoline is administered (in doses of 0.3 mg/kg) at 15 minute intervals. After 2 comparison values, the test substance is injected in increasing doses 5 minutes before the next administration of arecoline. The results obtained were compared with the average starting values and determined as the percentage inhibition.

For another assay, the target named is T3, M2 (Heart) (Rattus norvegicus, UniProt P10980).
T3 construct: The cerebral cortex, heart and salivary glands were removed, washed and homogenised; from tissue; host or cells: heart of male Wistar rats (Chbb: THOM)
T3 sequence (P10980 1-466): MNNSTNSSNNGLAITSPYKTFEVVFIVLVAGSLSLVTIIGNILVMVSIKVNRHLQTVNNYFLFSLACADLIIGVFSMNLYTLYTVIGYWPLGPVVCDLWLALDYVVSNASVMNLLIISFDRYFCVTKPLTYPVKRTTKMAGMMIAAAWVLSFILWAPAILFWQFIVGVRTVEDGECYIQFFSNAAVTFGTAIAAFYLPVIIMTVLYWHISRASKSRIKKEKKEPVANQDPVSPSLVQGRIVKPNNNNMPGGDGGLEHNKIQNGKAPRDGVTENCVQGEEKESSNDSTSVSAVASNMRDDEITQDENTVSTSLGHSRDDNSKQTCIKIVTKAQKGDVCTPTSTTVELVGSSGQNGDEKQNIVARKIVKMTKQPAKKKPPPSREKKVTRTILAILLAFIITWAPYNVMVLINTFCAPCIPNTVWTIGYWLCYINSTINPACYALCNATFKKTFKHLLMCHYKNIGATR
Nature of the assay: Receptor binding test in vitro, M2 (heart), [3H]NMS. Details: species or system rat (male Wistar). The following applies: 0.3 nM [3H]NMS, 40 min, ambient temperature, pH 7.5.

Assay [2] concerns 24 months old learning-impaired rats. Nature of the assay: Effect on the memory in the Morris water maze (aged rats). The class given is in vivo, rat. Particulars: 24 months old rats, 0.2 mg/kg s.c., 4 days, FIG. 1, vs physiological saline. On the procedure: The tests were carried out using the water maze described by R. G. M. Morris in Learn Motive 12: 239-249 (1981) using the test method described therein.
On the first day, rats which were 24 months old and therefore learning-impaired (n=7 per group) were given 0.2 mg/kg of compound D by subcutaneous route whilst another group of these animals were given physiological saline solution (s.c.).

For assay [3] the following is noted: literature: Hunter and Roberts 1988; Hunter et al. 1986; Sutherland et al. 1982; Wishaw 1985; cited from earlier work.

“Also recorded” adds a separate entry of the source.

T1 sequence (P08483 whole entry): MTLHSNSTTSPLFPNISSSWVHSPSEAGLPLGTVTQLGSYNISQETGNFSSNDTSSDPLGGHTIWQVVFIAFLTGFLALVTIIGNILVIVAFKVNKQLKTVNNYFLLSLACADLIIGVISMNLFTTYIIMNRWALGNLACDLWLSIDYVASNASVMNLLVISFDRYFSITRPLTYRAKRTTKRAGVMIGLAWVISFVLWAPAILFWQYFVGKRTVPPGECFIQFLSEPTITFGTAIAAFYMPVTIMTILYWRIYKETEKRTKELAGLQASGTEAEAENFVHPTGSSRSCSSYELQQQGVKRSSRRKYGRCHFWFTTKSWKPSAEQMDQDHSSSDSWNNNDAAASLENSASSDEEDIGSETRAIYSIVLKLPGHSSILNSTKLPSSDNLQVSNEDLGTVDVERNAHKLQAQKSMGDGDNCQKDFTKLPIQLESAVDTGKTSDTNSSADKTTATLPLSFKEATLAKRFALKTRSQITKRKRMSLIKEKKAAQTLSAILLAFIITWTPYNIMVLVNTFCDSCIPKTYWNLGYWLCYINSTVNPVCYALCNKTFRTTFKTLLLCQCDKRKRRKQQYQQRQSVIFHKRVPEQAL

As for `CCN(CCCC1CCN(CC(=O)N2c3ccc(C)cc3C(=O)Nc3cccnc32)CC1)C(=O)C(C)(C)C` [Substance E, 5,11-dihydro-8-methyl-11-[[4-[3-[(2,2-dimethyl-1-oxopropyl)-ethylamino]propyl]-1-piperidinyl]acetyl]-6H-pyrido[2,3-b][1,4]benzodiazepin-6-one], the Ki is 1500 nM at M3 (Submandibular gland), 1000 nM on M1 (Cortex) and 100 nM on M2 (Heart). Moreover, the ED50 in assay [1] stood at 2.8 mg/kg.

For the compound `CN(CCC1CCCN1C)CC(=O)N1c2ccccc2C(=O)Nc2cccnc21` (stereo not shown) [R], the results for the inhibition constant Ki on M3 (Submandibular gland), at M1 (Cortex) and at M2 (Heart) were 30 nM, 7.1 nM and 3 nM, respectively.

Turning to `Cc1scc2c1N(C(=O)CN1CCC(CCCN3CCCCC3)CC1)c1ccccc1NC2=O` [N], the results for the Ki at M3 (Submandibular gland), at M1 (Cortex) and at M2 (Heart) were 6 nM, 7.9 nM and 2 nM, respectively.

For `CCCC(C)(C)C(=O)N(CC)CCCC1CCN(CC(=O)N2c3ccc(Cl)cc3C(=O)Nc3cccnc32)CC1` [Substance D, 5,11-dihydro-8-chloro-11-[[4-[3-[(2,2-dimethyl-1-oxopentyl)-ethylamino]propyl]-1-piperidinyl]-acetyl]-6H-pyrido[2,3-b][1,4]benzodiazepin-6-one], the “Memory performance in the Morris water maze (in words)” value in assay [2] is “improved memory performance; also recorded: reached the same level as the control groups of young rats”. Also, the Ki on M3 (Submandibular gland) worked out at 916 nM; at M1 (Cortex) it was 866 nM; on M2 (Heart) it was 25 nM. Besides, in assay [1], the ED50 was 5 mg/kg.

As to `O=C1Nc2cccnc2N(C(=O)CCCCCN2CCCCC2)c2ccccc21` [Substance O, 5,11-dihydro-11-[1-oxo-6-(1-piperidinyl)-1-hexyl]-6H-pyrido[2,3-b][1,4]benzodiazepin-10-one, reference compound], the inhibitory constant (Ki) at M3 (Submandibular gland) amounted to 40 nM; on M1 (Cortex) it was 10 nM; on M2 (Heart) it was 5 nM.

Regarding `CN1CCN(CC(=O)N2c3ccccc3C(=O)Nc3cccnc32)CC1` [pirenzepine], the “Learning ability and memory performance (in words)” value in assay [3] is “a deterioration in learning ability and memory performance was observed”.

Consider `CCN(CC)CC1COCCN1CCCC(=O)N1c2ccccc2C(=O)Nc2cccnc21` (stereo not shown) [Q], for which the Ki on M3 (Submandibular gland) was determined as 50 nM; on M1 (Cortex) it was 50 nM; on M2 (Heart), 20 nM.

As for `Cc1scc2c1N(C(=O)CCC#CCN1CCCCCC1)c1ccccc1NC2=O` [P], the Ki on M3 (Submandibular gland) turned out to be 30 nM; on M1 (Cortex), 35 nM; on M2 (Heart), 7.6 nM.

Turning to `CCN(CCCC1CCN(CC(=O)N2c3ccc(C)cc3C(=O)Nc3cccnc32)CC1)C(=O)C(C)(C)CC` [Substance G, 5,11-dihydro-8-methyl-11-[[4-[3-[(2,2-dimethyl-1oxobutyl)ethylamino]propyl]-1-piperidinyl]acetyl]-6H-pyrido[2,3-b][1,4]benzodiazepin-6-one], the Ki on M3 (Submandibular gland) is 750 nM; on M1 (Cortex), 600 nM; on M2 (Heart), 25 nM. For the same compound, the 50% effective dose (ED50) in assay [1] came to 5.1 mg/kg.

Turning to `CCCC(C)(C)C(=O)N(CC)CCCC1CCN(CC(=O)N2c3ccccc3C(=O)Nc3cccnc32)CC1` [Substance B], the inhibition constant (Ki) at M3 (Submandibular gland) came to 300 nM; on M1 (Cortex) it was 150 nM; at M2 (Heart) it was 15 nM. Moreover, the ED50 in assay [1] is 1.3 mg/kg.

Take `O=C1Nc2cccnc2N(C(=O)CCC#CCN2CCCCC2)c2ccccc21` [J]: the Ki at M3 (Submandibular gland) was 1820 nM; at M1 (Cortex) it was 794 nM; on M2 (Heart), 120 nM.

As to `CCN(CC)CCCCC1CCN(CC(=O)N2c3ccccc3C(=O)Nc3cccnc32)CC1` [I], the Ki at M3 (Submandibular gland) is 151 nM; at M1 (Cortex), 20 nM.

On to `CCN(CCCC1CCN(CC(=O)N2c3ccccc3C(=O)Nc3cccnc32)CC1)C(=O)C(C)(C)CC` [Substance A, 5,11-dihydro-11-[[4-[3-[(2,2-dimethyl-1-oxobutyl]-ethylamino]-propyl]-1-piperidinyl]acetyl]-6H-pyrido[2,3-b][1,4]benzodiazepin-6-one], for which the Ki on M3 (Submandibular gland) is 750 nM; at M1 (Cortex), 500 nM; on M2 (Heart) it was 25 nM. Moreover, in assay [1], the ED50 stood at 4.5 mg/kg.

The compound `CCN(CC)CC1CCCCN1CC(=O)N1c2ccccc2C(=O)Nc2cccnc21` (stereo not shown) [H] yielded an inhibition constant Ki at M3 (Submandibular gland) of 2000 nM.

In the case of `CCCN(CCC)CC1CCCCN1CCNC(=O)N1c2ccccc2C(=O)Nc2cccnc21` (stereo not shown) [L], the Ki on M1 (Cortex) turned out to be 30 nM; at M2 (Heart), 7.9 nM. Besides, the ED50 in assay [1] was greater than 10 mg/kg. Further, in assay [1] (rat, i.v.), the “Effect on arecoline-mediated central effects / increase in blood pressure (in words)” value is listed as “no effect on the increase in blood pressure caused by arecoline”.

For `CN(CCC1CCCCCN1C)CC(=O)N1c2ccccc2C(=O)Nc2cccnc21` (stereo not shown) [S], the inhibition constant Ki is 25 nM on M3 (Submandibular gland), 16 nM on M1 (Cortex) and 3 nM on M2 (Heart).

For the compound `O=C1Nc2cccnc2N(C(=O)N2CCCC(CCCN3CCCCC3)C2)c2ccccc21` (stereo not shown) [M], the values for the Ki at M3 (Submandibular gland), on M1 (Cortex) and at M2 (Heart) were 13 nM, 13 nM and 2 nM, respectively.

For the compound `CCCC(C)(C)C(=O)N(CC)CCCCC1CCN(CC(=O)N2c3ccccc3C(=O)Nc3cccnc32)CC1` [Substance C, 5,11-dihydro-11-[[4-[4-[(2,2-dimethyl-1-oxopentyl)-ethylamino]butyl]-1-piperidinyl]acetyl]-6H -pyrido [2,3-b][1,4]benzodiazepin-6-one], the inhibitory constant (Ki) on M3 (Submandibular gland) amounted to 875 nM; at M1 (Cortex), 500 nM; on M2 (Heart), 38 nM. Moreover, in assay [1], the ED50 worked out at 2 mg/kg.

As to `CCN(CCCC1CCN(CC(=O)N2c3ccccc3C(=O)Nc3cccnc32)CC1)C(=O)C(C)(C)C` [Substance F, 5,11-Dihydro-11-[[4-[3-[(2,2-dimethyl-1-oxopropyl)ethylamino]propyl]-1-piperidinyl]acetyl]-6H-pyrido[2,3-b][1,4]benzodiazepin-6-one], the Ki on M3 (Submandibular gland) was 1500 nM; at M1 (Cortex) it was 900 nM; at M2 (Heart) it was 65 nM. The median effective dose (ED50) in assay [1] stood at 6.5 mg/kg.
